Experiments:
ADAM = experiment: Inhibition of PMA-induced TNF-α release from U937 cells as index of ADAM inhibition (ELISA); format: cell-based, human; details: tested substance 30 μg/mL, 30 min pretreatment, 10 nM PMA for 6 hours
Description: For ADAM inhibiting effect, the TNF-α which is cut out to be released from the membrane of the U937 cell derived from the human lymphoma through the action of the ADAM was used as an index and the inhibiting effect on the TNF-α release was assessed. A new ADAM inhibitor was explored by screening different compounds according to the present method.
The U937 cells derived from the human lymphoma were seeded to the 48-well plate adjusting the number of the cells to 1×10^5 cells/0.25 ml and cultured at 37° C. overnight. The medium which contained 30 μg/ml of alkyl glucoside was added and incubated at 37° C. for 30 min. to be pretreated. 10 nM PMA (phorbol ester:12-O-tetradecanoylphorbol-acetate; Sigma P8139) was then added and cultured at 37° C. for 6 hours. After completion of the treatment, the supernatant of the culture was collected, centrifuged and the cell-free supernatant was cryopreserved at −20° C. The assay of the released hTNF-α was performed using the hTNF-α Duo-Set ELISA kit from R & D Ltd. Each supernatant of the culture was diluted 5 folds with the medium, then 100 μl each was added to the 96-well plate and measured according to the protocol of R & D Ltd. The absorbance at 450-570 nm of each well was measured by the measurement kit and concentrations of the samples were obtained from the standard curve. The inhibition rates were calculated according to the following equation wherein A0 is the absorbance of 0% inhibiting control (the medium containing only PMA), A100 is the absorbance of 100% inhibiting control (only the medium) and AS is the absorbance of the sample.
The inhibition rate (%)=(A0−AS)/(A0−A100)×100

[1] = Water content of the horny (corneal) layer around the human eyes (Corneometer); format: in vivo; details: 0.44% in 30% ethanol, two months; vehicle group reduced to 95% of the value before start (FIG. 6)
Description: (§1) An aqueous solution of 0.44% dodecyl β-D-glucoside/30% ethanol was successively applied to 16 adult male humans in the 30-40th's (the average age of 42.2) for two months. The dosage was set as 30 μl per application. The solution of 0.44% dodecyl β-D-glucoside/30% ethanol was applied to the lateral angle of and under one eye and 30% ethanol aqueous solution as the vehicle was applied to those of the other eye two times a day.
(§2) To examine the state of the skin around the eyes before the application and after the application, it was acclimated in a steady temperature and humidity room (23.5° C., 45% humidity) after washing the face and then photo taking of the appearance around the eyes (Nikon digital single lens reflex camera D-100) and the water content measurement of the horny layer (Corneometer, Courage+Khazaka electronic GmbH, Germany) were performed before starting the test and after starting the successive application for two months.
The rate of the water content value of the corneal layer of the eye, when the value is 100, after successive application for two months based on the water content value of the horny layer of each subject before starting the test (relative water content of the horny layer (%)) was obtained to calculate the average value for each group.

[2] = system: barrier-destructed wrinkle mouse model; experiment: Relative transepidermal water loss (TEWL) in the barrier-destructed wrinkle mouse model; format: in vivo, hairless mice (HR-1); details: for Relative TEWL (%), left (treated) side based on right (untreated) side: 1% in 50% ethanol, 4 weeks after starting, vehicle group 186% (FIG. 3)
Description: (§3) The tape stripping was performed on the left back of the hairless mice (HR-1, 6 week old male, Hosino experimental animals) 3 times a week for 4 consecutive weeks so that the trans epithelial water loss (measured using a measuring device of water loss MEECO; Meeco Ltd, USA) was 4-8 mg/cm^2/h. Every time immediately after procedures of tape stripping, 100 μl each of the solutions of dodecyl β-D-glucoside, tetradecyl β-D-glucoside, and hexadecyl β-D-glucoside dissolved in the 50% ethanol aqueous solution so that they were 1% were applied on the left back of the mice, and as the negative control, a 50% ethanol aqueous solution (vehicle) were similarly applied. Number n was set as 6 to 7 for each group.
Further, the trans epithelial water loss (TEWL) at the backs of the mice before starting the test and at 4 weeks after starting was also examined. The TEWL values at the left backs on which dodecyl β-D-glucoside, tetradecyl β-D-glucoside, and hexadecyl β-D-glucoside or 50% ethanol aqueous solution (vehicle) were applied after tape stripping procedure as well as the values at the right backs on which nothing was applied were measured by the Vapometer (Technologies Ltd, Kuopio, Finland) two times, respectively. The ratio of the TEWL value for the left side based on the TEWL value of the right side for each individual (the relative TEWL (%)) was obtained and the average value for each group was calculated.
(§4) Using the similar method, the wrinkle-inhibiting effect of octadecyl β-D-glucoside (GC18) was also examined.

[3] = system: fine wrinkles around the human eyes; experiment: Visual judgement of fine wrinkles under the human eye, half face double blind test; format: in vivo; details: 0.44% in 30% ethanol
Description: as §1, §2
Then, the visual appreciation judgement was performed by three judging persons.

[4] = system: barrier-destructed wrinkle mouse model; experiment: Wrinkle score by visual judgement in the tape-stripping barrier-destructed wrinkle mouse model; format: in vivo, hairless mice (HR-1)
Description: Then, the wrinkle-ameliorating effects of dodecyl β-D-glucoside (GC12), tetradecyl β-D-glucoside (GC14), and hexadecyl β-D-glucoside (GC16) amongst the new ADAM-inhibiting compounds were examined using a barrier-destructed wrinkle mouse model.
as §3
States of the wrinkle development after 4 weeks were scored by visual judgement. The assessment criteria of the wrinkle development state was set as “no wrinkle; 0”, “thin wrinkle; 1”, “clear wrinkle; 2”, “deep wrinkle; 3”, and the states were scored to the 0.5.
as §4

[5] = 30 μl two times a day for two months, 16 adult males, versus vehicle-applied side
[6] = 1% in 50% ethanol, 100 μl on left back after each tape stripping, 3 times a week, after 4 weeks, vehicle group 1.24 (FIG. 2)

## CCCCCCCCCCO[C@@H]1O[C@H](CO)[C@@H](O)[C@H](O)[C@H]1O [Decyl β-D-glucoside]
ADAM
  Inhibition rate (%) of TNF-α release: 56%

## CCCCCCCCCCCCO[C@H]1O[C@H](CO)[C@@H](O)[C@H](O)[C@H]1O [Dodecyl α-D-glucoside]
ADAM
  Inhibition rate (%) of TNF-α release: 91%

## CCCCCCCCCCCCO[C@@H]1O[C@H](CO)[C@@H](O)[C@H](O)[C@H]1O [Dodecyl β-D-glucoside]
ADAM
  Inhibition rate (%) of TNF-α release: 88%
[1]
  Relative water content of the horny layer (in words): reduction of the water content of the corneal layer was controlled
[2]
  Relative TEWL (%), left (treated) side based on right (untreated) side: 141%
[3]; [5]
  Number of subjects Ameliorated: 10
  Number of subjects Deteriorated: 2
  Number of subjects Unchanged: 4
[3]; two months, human
  Effect on fine wrinkles under the eye (in words): significantly ameliorates the fine wrinkles under the eye
[4]; [6]
  Average wrinkle score by visual judgement (0 no wrinkle to 3 deep wrinkle): 0.58

## OC[C@H]1O[C@@H](Oc2ccccc2)[C@H](O)[C@@H](O)[C@@H]1O [Glucoside compound (A), reference compound]
ADAM
  Inhibition rate (%) of TNF-α release: 9.5%

## OC[C@H]1O[C@@H](OCc2ccccc2)[C@H](O)[C@@H](O)[C@@H]1O [Glucoside compound (B), reference compound]
ADAM
  Inhibition rate (%) of TNF-α release: 3.4%

## OC[C@H]1O[C@@H](Oc2cccc3cccnc23)[C@H](O)[C@@H](O)[C@@H]1O [Glucoside compound (C), reference compound]
ADAM
  Inhibition rate (%) of TNF-α release: 4.8%

## OC[C@H]1O[C@@H](Oc2c[nH]c3ccccc23)[C@H](O)[C@@H](O)[C@@H]1O [Glucoside compound (D), reference compound]
ADAM
  Inhibition rate (%) of TNF-α release: −0.5%

## OC[C@H]1O[C@@H](OCCc2ccccc2)[C@H](O)[C@@H](O)[C@@H]1O [Glucoside compound (E), reference compound]
ADAM
  Inhibition rate (%) of TNF-α release: −51.83%

## CCCCCCCCCCCCCCCCO[C@@H]1O[C@H](CO)[C@@H](O)[C@H](O)[C@H]1O [Hexadecyl β-D-glucoside]
ADAM
  Inhibition rate (%) of TNF-α release: 76%
[2]
  Relative TEWL (%), left (treated) side based on right (untreated) side: 164%
[4]; [6]
  Average wrinkle score by visual judgement (0 no wrinkle to 3 deep wrinkle): 0.89

## CCCCCCCCCCCCCCCCCCO[C@@H]1O[C@H](CO)[C@@H](O)[C@H](O)[C@H]1O [Octadecyl β-D-glucoside]
ADAM
  Inhibition rate (%) of TNF-α release: 62%
[2]; similar method, vehicle group 208% (FIG. 5)
  Relative TEWL (%): 124%
[4]; similar method, vehicle group 1.55 (FIG. 4)
  Average wrinkle score by visual judgement (0 no wrinkle to 3 deep wrinkle): 0.54

## CCCCCCCCCCCCCCO[C@@H]1O[C@H](CO)[C@@H](O)[C@H](O)[C@H]1O [Tetradecyl β-D-glucoside]
ADAM
  Inhibition rate (%) of TNF-α release: 109%
[2]
  Relative TEWL (%), left (treated) side based on right (untreated) side: 130%
[4]; [6]
  Average wrinkle score by visual judgement (0 no wrinkle to 3 deep wrinkle): 0.63

## CCCCCCCCCCCO[C@@H]1O[C@H](CO)[C@@H](O)[C@H](O)[C@H]1O [Undecyl β-D-glucoside]
ADAM
  Inhibition rate (%) of TNF-α release: 98%

Reference: patent US20100035831A1, “ANTI-WRINKLE AGENT AND ADAM INHIBITOR” (SHISEIDO COMPANY, LTD., priority 2007, published 2010)
